{"source": "ChEMBL document CHEMBL1201862", "about": "“PubChem BioAssay data set” (2004)", "test_in_all_cases": "inhibition of tumour cell growth, NCI panel, 48 h", "key": {"COLO 205": {"test_system": "COLO 205"}, "HCC 2998": {"test_system": "HCC 2998"}, "HCT-15": {"test_system": "HCT-15"}, "HL-60": {"test_system": "HL-60"}, "HOP-62": {"test_system": "HOP-62"}, "IGROV-1": {"test_system": "IGROV-1"}, "M14": {"test_system": "M14"}, "NCI-H226": {"test_system": "NCI-H226"}, "NCI-H460": {"test_system": "NCI-H460"}, "OVCAR-3": {"test_system": "OVCAR-3"}, "OVCAR-5": {"test_system": "OVCAR-5"}, "SF-268": {"test_system": "SF-268"}, "SF-539": {"test_system": "SF-539"}, "SK-MEL-5": {"test_system": "SK-MEL-5"}, "SNB-75": {"test_system": "SNB-75"}, "HCT-116": {"test_system": "HCT-116"}}, "note": "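Step 1: Grow cells in 96-well plates. Step 2: Expose to compound for 48 hours at 5 concentrations. Step 3: Interpolate endpoints linearly; if unreached, use highest concentration. GI50: concentration for 50% inhibition of growth.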 The source made the active and inactive calls. Rule as the data show it: active = GI50 up to about 1.1 µM and inactive = higher.", "data": [{"smiles": "COc1ccc2c(c1)[n+]([O-])c(-c1ccc(OC)c(OC)c1)c(N)[n+]2[O-]", "values": [{"measurement": "GI50", "setting": "COLO 205", "result": "18.7 µM (inactive)"}, {"measurement": "GI50", "setting": "HCC 2998", "result": "> 100 µM (inactive)"}, {"measurement": "GI50", "setting": "HCT-15", "result": 37.2, "unit": "µM"}, {"measurement": "GI50", "setting": "HL-60", "result": "53.2 µM (inactive)"}, {"measurement": "GI50", "setting": "HOP-62", "result": "> 100 µM (inactive)"}, {"measurement": "GI50", "setting": "IGROV-1", "result": "> 100 µM (inactive)"}, {"measurement": "GI50", "setting": "M14", "result": "57.4 µM (inactive)"}, {"measurement": "GI50", "setting": "NCI-H226", "result": "> 100 µM (inactive)"}, {"measurement": "GI50", "setting": "NCI-H460", "result": "49.4 µM (inactive)"}, {"measurement": "GI50", "setting": "OVCAR-3", "result": "> 100 µM (inactive)"}, {"measurement": "GI50", "setting": "OVCAR-5", "result": "> 100 µM (inactive)"}, {"measurement": "GI50", "setting": "SF-268", "result": "35.2 µM (inactive)"}, {"measurement": "GI50", "setting": "SF-539", "result": "29.4 µM (inactive)"}, {"measurement": "GI50", "setting": "SK-MEL-5", "result": "32.7 µM (inactive)"}, {"measurement": "GI50", "setting": "SNB-75", "result": "> 100 µM (inactive)"}]}, {"smiles": "CC(=O)NS(=O)(=O)c1ccc(NC(=O)COC(=O)c2cccc3c(=O)c4ccccc4[nH]c23)cc1", "values": [{"measurement": "GI50", "setting": "COLO 205", "result": "> 100 µM (inactive)"}, {"measurement": "GI50", "setting": "HCT-116", "result": "> 100 µM (inactive)"}, {"measurement": "GI50", "setting": "HCT-15", "result": "> 100", "unit": "µM"}, {"measurement": "GI50", "setting": "HL-60", "result": "> 100 µM (inactive)"}, {"measurement": "GI50", "setting": "HOP-62", "result": "> 100 µM (inactive)"}, {"measurement": "GI50", "setting": "IGROV-1", "result": "> 100 µM (inactive)"}, {"measurement": "GI50", "setting": "M14", "result": "> 100 µM (inactive)"}, {"measurement": "GI50", "setting": "NCI-H226", "result": "> 100 µM (inactive)"}, {"measurement": "GI50", "setting": "NCI-H460", "result": "> 100 µM (inactive)"}, {"measurement": "GI50", "setting": "OVCAR-3", "result": "92.5 µM (inactive)"}, {"measurement": "GI50", "setting": "SF-539", "result": "> 100 µM (inactive)"}, {"measurement": "GI50", "setting": "SK-MEL-5", "result": "> 100 µM (inactive)"}, {"measurement": "GI50", "setting": "SNB-75", "result": "> 100 µM (inactive)"}]}, {"smiles": "NC1C[C@H](n2cc(/C=C/Br)c(=O)[nH]c2=O)C[C@@H]1CO", "note": "(stereo not given in full)", "values": [{"measurement": "GI50", "setting": "COLO 205", "result": "> 100 µM (inactive)"}, {"measurement": "GI50", "setting": "HCC 2998", "result": "> 100 µM (inactive)"}, {"measurement": "GI50", "setting": "HCT-15", "result": "> 100", "unit": "µM"}, {"measurement": "GI50", "setting": "HL-60", "result": "> 100 µM (inactive)"}, {"measurement": "GI50", "setting": "HOP-62", "result": "> 100 µM (inactive)"}, {"measurement": "GI50", "setting": "M14", "result": "> 100 µM (inactive)"}, {"measurement": "GI50", "setting": "NCI-H226", "result": "> 100 µM (inactive)"}, {"measurement": "GI50", "setting": "NCI-H460", "result": "> 100 µM (inactive)"}, {"measurement": "GI50", "setting": "OVCAR-3", "result": "> 100 µM (inactive)"}, {"measurement": "GI50", "setting": "SF-268", "result": "> 100 µM (inactive)"}, {"measurement": "GI50", "setting": "SF-539", "result": "> 100 µM (inactive)"}, {"measurement": "GI50", "setting": "SNB-75", "result": "> 100 µM (inactive)"}]}, {"smiles": "C=C1CC(CC)(CCN2C(=O)c3ccccc3C2=O)OC1=O", "note": "(stereo not given)", "values": [{"measurement": "GI50", "setting": "COLO 205", "result": "16.7 µM (inactive)"}, {"measurement": "GI50", "setting": "HCC 2998", "result": "17.7 µM (inactive)"}, {"measurement": "GI50", "setting": "HCT-116", "result": "12.6 µM (inactive)"}, {"measurement": "GI50", "setting": "HCT-15", "result": 13.9, "unit": "µM"}, {"measurement": "GI50", "setting": "HL-60", "result": "9.2 µM (inactive)"}, {"measurement": "GI50", "setting": "HOP-62", "result": "35.9 µM (inactive)"}, {"measurement": "GI50", "setting": "IGROV-1", "result": "35.8 µM (inactive)"}, {"measurement": "GI50", "setting": "M14", "result": "10.9 µM (inactive)"}, {"measurement": "GI50", "setting": "NCI-H226", "result": "13.8 µM (inactive)"}, {"measurement": "GI50", "setting": "NCI-H460", "result": "69.2 µM (inactive)"}, {"measurement": "GI50", "setting": "SF-268", "result": "1.08 µM (active)"}, {"measurement": "GI50", "setting": "SF-539", "result": "18.9 µM (inactive)"}, {"measurement": "GI50", "setting": "SK-MEL-5", "result": "12.9 µM (inactive)"}, {"measurement": "GI50", "setting": "SNB-75", "result": "43.8 µM (inactive)"}]}, {"smiles": "Fc1ccc(C2SCc3nc4ccccc4n32)cc1F", "note": "(stereo not given)", "values": [{"measurement": "GI50", "setting": "COLO 205", "result": "27.6 µM (inactive)"}, {"measurement": "GI50", "setting": "HCC 2998", "result": "37.6 µM (inactive)"}, {"measurement": "GI50", "setting": "HCT-116", "result": "26.8 µM (inactive)"}, {"measurement": "GI50", "setting": "HCT-15", "result": 35.7, "unit": "µM"}, {"measurement": "GI50", "setting": "HL-60", "result": "7.8 µM (inactive)"}, {"measurement": "GI50", "setting": "HOP-62", "result": "35.8 µM (inactive)"}, {"measurement": "GI50", "setting": "IGROV-1", "result": "33.5 µM (inactive)"}, {"measurement": "GI50", "setting": "M14", "result": "25.7 µM (inactive)"}, {"measurement": "GI50", "setting": "NCI-H460", "result": "37.4 µM (inactive)"}, {"measurement": "GI50", "setting": "OVCAR-3", "result": "26.9 µM (inactive)"}, {"measurement": "GI50", "setting": "SF-268", "result": "50.4 µM (inactive)"}, {"measurement": "GI50", "setting": "SF-539", "result": "34 µM (inactive)"}, {"measurement": "GI50", "setting": "SK-MEL-5", "result": "16.8 µM (inactive)"}, {"measurement": "GI50", "setting": "SNB-75", "result": "20.1 µM (inactive)"}]}, {"smiles": "Cc1cc2c(c(C(=O)O)c1C)-c1cccc(F)c1C2=O", "values": [{"measurement": "GI50", "setting": "COLO 205", "result": "> 100 µM (inactive)"}, {"measurement": "GI50", "setting": "HCC 2998", "result": "> 100 µM (inactive)"}, {"measurement": "GI50", "setting": "HCT-15", "result": "> 100", "unit": "µM"}, {"measurement": "GI50", "setting": "HOP-62", "result": "> 100 µM (inactive)"}, {"measurement": "GI50", "setting": "IGROV-1", "result": "> 100 µM (inactive)"}, {"measurement": "GI50", "setting": "M14", "result": "> 100 µM (inactive)"}, {"measurement": "GI50", "setting": "NCI-H226", "result": "55.1 µM (inactive)"}, {"measurement": "GI50", "setting": "NCI-H460", "result": "> 100 µM (inactive)"}, {"measurement": "GI50", "setting": "OVCAR-3", "result": "> 100 µM (inactive)"}, {"measurement": "GI50", "setting": "OVCAR-5", "result": "> 100 µM (inactive)"}, {"measurement": "GI50", "setting": "SF-268", "result": "> 100 µM (inactive)"}, {"measurement": "GI50", "setting": "SK-MEL-5", "result": "> 100 µM (inactive)"}, {"measurement": "GI50", "setting": "SNB-75", "result": "> 100 µM (inactive)"}]}, {"smiles": "C1CC[N+]23CCCC[N+]2(C1)CCCC3", "note": "(stereo not given)", "values": [{"measurement": "GI50", "setting": "COLO 205", "result": "> 100 µM (inactive)"}, {"measurement": "GI50", "setting": "HCC 2998", "result": "> 100 µM (inactive)"}, {"measurement": "GI50", "setting": "HCT-116", "result": "> 100 µM (inactive)"}, {"measurement": "GI50", "setting": "HCT-15", "result": "> 100", "unit": "µM"}, {"measurement": "GI50", "setting": "HL-60", "result": "> 100 µM (inactive)"}, {"measurement": "GI50", "setting": "HOP-62", "result": "> 100 µM (inactive)"}, {"measurement": "GI50", "setting": "IGROV-1", "result": "> 100 µM (inactive)"}, {"measurement": "GI50", "setting": "M14", "result": "> 100 µM (inactive)"}, {"measurement": "GI50", "setting": "NCI-H226", "result": "> 100 µM (inactive)"}, {"measurement": "GI50", "setting": "NCI-H460", "result": "> 100 µM (inactive)"}, {"measurement": "GI50", "setting": "OVCAR-3", "result": "> 100 µM (inactive)"}, {"measurement": "GI50", "setting": "OVCAR-5", "result": "> 100 µM (inactive)"}, {"measurement": "GI50", "setting": "SF-268", "result": "> 100 µM (inactive)"}, {"measurement": "GI50", "setting": "SK-MEL-5", "result": "> 100 µM (inactive)"}, {"measurement": "GI50", "setting": "SNB-75", "result": "> 100 µM (inactive)"}]}, {"smiles": "O=C(CC1(O)C(=O)Nc2ccc([N+](=O)[O-])cc21)c1ccncc1", "note": "(stereo not given)", "values": [{"measurement": "GI50", "setting": "COLO 205", "result": "77.1 µM (inactive)"}, {"measurement": "GI50", "setting": "HCC 2998", "result": "67 µM (inactive)"}, {"measurement": "GI50", "setting": "HCT-116", "result": "30.8 µM (inactive)"}, {"measurement": "GI50", "setting": "HCT-15", "result": 83.8, "unit": "µM"}, {"measurement": "GI50", "setting": "HL-60", "result": "19.3 µM (inactive)"}, {"measurement": "GI50", "setting": "HOP-62", "result": "> 100 µM (inactive)"}, {"measurement": "GI50", "setting": "M14", "result": "51.6 µM (inactive)"}, {"measurement": "GI50", "setting": "NCI-H226", "result": "83 µM (inactive)"}, {"measurement": "GI50", "setting": "NCI-H460", "result": "48.6 µM (inactive)"}, {"measurement": "GI50", "setting": "OVCAR-3", "result": "25.2 µM (inactive)"}, {"measurement": "GI50", "setting": "OVCAR-5", "result": "> 100 µM (inactive)"}, {"measurement": "GI50", "setting": "SF-268", "result": "36.7 µM (inactive)"}, {"measurement": "GI50", "setting": "SF-539", "result": "51.3 µM (inactive)"}, {"measurement": "GI50", "setting": "SNB-75", "result": "26.1 µM (inactive)"}]}]}
